Results on one compound are retold here after patent publication US20140134140A1, “MESENCHYMAL STEM CELL COMPOSITIONS FOR THE TREATMENT OF MICROBIAL INFECTIONS” (Case Western Reserve University, priority 2012, published 2014).

Assay [1] has as its target T1, CFTR (Mus musculus, UniProt P26361).
T1 construct: BMC9 cells have 0.36±0.14% Cftr expression; endogenous in cells; host or cells: BMC9 immortal mouse MSC clone
Kind of assay: LL-37 secretion by BMC9 cells with CFTR inhibition. It is filed as cell-based. The conditions noted are these: 10 μg/ml, 48 hours; Mean±SEM, n=3. As for the experimental part:
(§1) To determine if CF MSCs express CFTR to validate the I-172 studies, we took advantage of an immortal mouse derived MSC clone BMC9, especially since we have a highly reproducible mouse Cftr gene expression assay in our CF animal CORE center. These cells are abundant and have s a MSC phenotype when grown at 37° C. […] The sensitivity and specificity of our Cftr expression assay is 40±2 Ct. If we had used a lower expressing tissue, the % of Cftr levels would be higher. BMC9 cells cultured with I-172 (10 μg/ml, for 48 hours) secreted 37±13% (Mean±SEM, n=3) less LL-37 than BMC9 cells not cultured with I-172 (P≦0.05). […] Our future studies are aimed at studying the differences between and Cftr deficient MSCs and control MSCs.

For assay [2], the target named is T2, CFTR (Homo sapiens, UniProt P13569).
T2 construct: endogenous in cells; host or cells: human mesenchymal stem cells (hMSCs) from bone marrow of healthy volunteers
T2 sequence (P13569 whole entry): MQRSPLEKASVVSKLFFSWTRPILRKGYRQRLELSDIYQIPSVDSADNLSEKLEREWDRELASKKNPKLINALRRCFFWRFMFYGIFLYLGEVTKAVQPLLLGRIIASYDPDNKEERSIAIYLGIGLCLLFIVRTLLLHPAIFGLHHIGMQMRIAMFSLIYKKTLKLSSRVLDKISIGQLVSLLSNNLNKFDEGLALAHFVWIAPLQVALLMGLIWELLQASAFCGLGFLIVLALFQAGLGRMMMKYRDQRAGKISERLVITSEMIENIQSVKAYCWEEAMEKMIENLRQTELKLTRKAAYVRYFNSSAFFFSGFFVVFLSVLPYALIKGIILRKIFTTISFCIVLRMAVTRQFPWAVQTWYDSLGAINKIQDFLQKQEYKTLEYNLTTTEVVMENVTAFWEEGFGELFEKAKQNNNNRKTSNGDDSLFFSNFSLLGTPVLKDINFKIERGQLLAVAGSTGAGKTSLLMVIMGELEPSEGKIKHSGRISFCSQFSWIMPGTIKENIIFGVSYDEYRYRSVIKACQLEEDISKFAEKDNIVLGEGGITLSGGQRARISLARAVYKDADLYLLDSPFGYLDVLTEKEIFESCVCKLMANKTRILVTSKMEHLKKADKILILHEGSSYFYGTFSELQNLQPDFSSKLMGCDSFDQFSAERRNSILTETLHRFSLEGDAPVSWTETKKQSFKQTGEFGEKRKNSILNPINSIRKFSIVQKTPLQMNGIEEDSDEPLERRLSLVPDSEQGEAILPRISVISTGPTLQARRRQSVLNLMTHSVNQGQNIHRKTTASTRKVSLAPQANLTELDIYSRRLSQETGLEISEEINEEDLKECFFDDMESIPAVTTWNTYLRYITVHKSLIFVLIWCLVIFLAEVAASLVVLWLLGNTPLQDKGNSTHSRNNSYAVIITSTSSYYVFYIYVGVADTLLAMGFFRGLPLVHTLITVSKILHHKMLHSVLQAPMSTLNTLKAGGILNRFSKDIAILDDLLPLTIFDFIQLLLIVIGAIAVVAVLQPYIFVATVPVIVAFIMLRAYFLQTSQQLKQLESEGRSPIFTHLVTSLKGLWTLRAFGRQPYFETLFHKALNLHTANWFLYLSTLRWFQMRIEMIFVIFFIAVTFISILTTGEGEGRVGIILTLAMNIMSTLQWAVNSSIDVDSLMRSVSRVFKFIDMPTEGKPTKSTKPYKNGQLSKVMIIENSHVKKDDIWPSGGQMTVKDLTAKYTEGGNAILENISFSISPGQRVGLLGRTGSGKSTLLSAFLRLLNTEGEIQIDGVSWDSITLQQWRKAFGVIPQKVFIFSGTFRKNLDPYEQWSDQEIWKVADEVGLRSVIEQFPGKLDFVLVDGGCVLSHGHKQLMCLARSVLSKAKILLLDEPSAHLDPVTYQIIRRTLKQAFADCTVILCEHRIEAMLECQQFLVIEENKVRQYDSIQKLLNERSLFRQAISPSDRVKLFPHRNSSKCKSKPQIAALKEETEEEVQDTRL
Kind of assay: LL-37 secretion by cultured hMSCs with or without CFTR inhibition. The format is cell-based. Here is the method: FIG. 11 illustrates that hMSCs and BMM cells secrete LL-37. hMSCs utilized in the animal models were cultured in vitro with and without the addition of 0.5 ug/ml LPS (n=5 preparations) with or without inhibition of CFTR with I-172 (10 ug/ml for 48 hours) and incubated for 24 hours. […] We used the student t-test for these analyses.
as §1

T1 sequence (P26361 whole entry): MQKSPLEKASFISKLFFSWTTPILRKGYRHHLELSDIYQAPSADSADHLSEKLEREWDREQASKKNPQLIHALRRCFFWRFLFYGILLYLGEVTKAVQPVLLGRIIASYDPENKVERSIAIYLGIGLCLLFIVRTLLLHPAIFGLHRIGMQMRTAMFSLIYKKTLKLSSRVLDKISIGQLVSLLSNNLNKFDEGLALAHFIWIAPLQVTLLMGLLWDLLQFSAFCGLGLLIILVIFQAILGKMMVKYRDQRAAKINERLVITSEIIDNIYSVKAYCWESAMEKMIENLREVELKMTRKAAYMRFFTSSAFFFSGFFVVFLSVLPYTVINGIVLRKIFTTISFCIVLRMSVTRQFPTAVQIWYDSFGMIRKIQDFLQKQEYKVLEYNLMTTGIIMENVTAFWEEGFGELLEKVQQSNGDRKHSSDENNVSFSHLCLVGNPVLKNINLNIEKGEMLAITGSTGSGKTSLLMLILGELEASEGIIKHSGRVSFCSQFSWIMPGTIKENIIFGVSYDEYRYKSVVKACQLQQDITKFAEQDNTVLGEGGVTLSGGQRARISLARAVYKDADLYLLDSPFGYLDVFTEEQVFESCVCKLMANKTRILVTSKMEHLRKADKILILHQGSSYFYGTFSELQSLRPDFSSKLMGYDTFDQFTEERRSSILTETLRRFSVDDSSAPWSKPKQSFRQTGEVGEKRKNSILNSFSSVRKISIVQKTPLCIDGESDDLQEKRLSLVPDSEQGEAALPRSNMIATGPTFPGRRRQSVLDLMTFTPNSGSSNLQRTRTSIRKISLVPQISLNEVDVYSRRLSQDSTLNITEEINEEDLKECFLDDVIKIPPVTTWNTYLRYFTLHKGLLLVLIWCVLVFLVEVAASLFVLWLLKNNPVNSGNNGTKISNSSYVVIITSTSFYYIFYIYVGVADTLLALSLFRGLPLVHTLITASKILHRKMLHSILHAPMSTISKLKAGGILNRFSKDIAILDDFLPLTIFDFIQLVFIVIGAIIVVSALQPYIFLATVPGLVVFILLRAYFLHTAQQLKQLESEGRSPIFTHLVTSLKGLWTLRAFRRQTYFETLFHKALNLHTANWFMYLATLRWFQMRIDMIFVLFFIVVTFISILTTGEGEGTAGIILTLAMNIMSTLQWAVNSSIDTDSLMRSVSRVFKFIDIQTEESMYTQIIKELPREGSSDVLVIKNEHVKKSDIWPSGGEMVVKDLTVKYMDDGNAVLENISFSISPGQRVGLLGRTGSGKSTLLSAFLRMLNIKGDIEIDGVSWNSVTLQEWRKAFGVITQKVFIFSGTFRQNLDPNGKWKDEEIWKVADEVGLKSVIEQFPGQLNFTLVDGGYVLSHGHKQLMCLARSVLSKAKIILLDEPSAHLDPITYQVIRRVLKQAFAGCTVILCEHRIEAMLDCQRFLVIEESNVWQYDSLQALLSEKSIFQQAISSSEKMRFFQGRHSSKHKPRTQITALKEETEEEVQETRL

Consider `O=C(O)c1ccc(/C=C2\SC(=S)N(c3cccc(C(F)(F)F)c3)C2=O)cc1` [I-172], for which the “less LL-37 secreted than BMC9 cells not cultured with I-172” value on CFTR [1] amounted to 37±13%. At CFTR [2] (10 ug/ml for 48 hours then LPS, relative to LPS control), the “amount of LL-37 after LPS stimulation” value is “even further suppressed”. Moreover, the “ability of hMSCs to secrete LL-37” value at CFTR [2] (10 ug/ml for 48 hours, relative to un-stimulated control) is on record as “significantly reduced”.
